Biological target: T1, Aurora A kinase (AURKA) (Homo sapiens, UniProt O14965)
T1 sequence (O14965 1-403): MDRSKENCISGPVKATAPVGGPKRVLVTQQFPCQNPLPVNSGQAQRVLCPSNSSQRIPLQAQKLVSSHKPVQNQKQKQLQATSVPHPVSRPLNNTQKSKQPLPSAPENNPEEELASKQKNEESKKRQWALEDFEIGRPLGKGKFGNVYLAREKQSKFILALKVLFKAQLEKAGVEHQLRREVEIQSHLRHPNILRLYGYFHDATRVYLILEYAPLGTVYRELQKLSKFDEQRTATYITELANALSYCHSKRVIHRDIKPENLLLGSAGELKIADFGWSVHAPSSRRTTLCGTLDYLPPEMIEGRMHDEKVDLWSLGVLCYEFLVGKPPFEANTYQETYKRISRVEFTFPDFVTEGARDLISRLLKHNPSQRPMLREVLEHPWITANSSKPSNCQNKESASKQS
Experiment: microscale thermophoresis with RED-NHS labelled purified AURKA ([…])
Assay type: binding

- Kd: 8.17 µM
SMILES: COc1cccc(C)c1C(=O)O[C@@H]1C[C@H](O[C@H]2[C@H](O)C[C@H](O[C@@H]3CCC[C@H]4[C@H]3C=C[C@@H]3CCCC/C=C\[C@H]5C=C(C(=O)O)[C@@H](C)C[C@@]56OC(=O)C(=C6O)OC(=O)[C@@]34C)O[C@@H]2C)O[C@H](C)[C@H]1O [Compound 5, deschloro-chlorothricin]
